In one data set the test system is IL-1β. Put plainly: Inhibition of IL-1β secretion from LPS stimulated peripheral blood mononuclear cells (ELISA). Particulars: LPS (1 μg/ml) stimulated human PBMC, 18 hours; read-out: The median inhibition concentration (IC50, nM) of IL-1β. It is filed as cell-based. As to the method: (§1) To study the effect of the compound of the present invention, in vitro, the inhibition of the IL-1β and TNF-α secretion was measured using the following procedure:
(§2) Cytokine production was measured in the media from lipopolysaccharide (LPS) stimulated peripheral blood mononuclear cells. The mononuclear cells were isolated from human peripheral blood by Lymphoprep® (Nycomed, Norway) fractionation and suspended in RPMI 1640 (growth medium) with foetal calv serum (FCS, 2%), at a concentration of 5×10^5 cells/ml. The cells were incubated in 24-well tissue culture plates in 1 ml aliquots. Test compounds were dissolved in dimethylsulfoxide (DMSO, 10 mM) and were diluted with the medium. Compounds were added to the cells for 30 minutes, then LPS (1 μg/ml final concentration) was added. The plates were incubated for 18 hours, and the concentration of IL-1β and TNF-α in the medium was determined by enzyme-linked immunosorbent assays. The median inhibitory concentrations (IC50) of the compounds were calculated.

For a further data set, the system named is TNF-α. Put plainly: Inhibition of TNF-α secretion from LPS stimulated peripheral blood mononuclear cells (ELISA). It counts as cell-based. As to conditions: LPS (1 μg/ml) stimulated human PBMC, 18 hours; read-out: The median inhibition concentration (IC50, nM) of TNF-α. As to the method:
as §1, §2

The subject of data set [1] is TPA induced murine skin inflammation. Put plainly: TPA induced murine chronic skin inflammation model, ear thickness (ET). It counts as in vivo, mice. As to conditions: topical, twice daily on day 8, 9 and 10 and once on day 11. As to the method:
(§3) To study the compounds of the present invention in vivo the 12--O--tetradecanoylphorbol-13-acetate (TPA) induced murine chronic skin inflammation model were used (De Young, L. M. et al, Agents Actions, 26, 335-341 (1989); Carlson, R. P. et al, Agents Actions, 17, 197-204 (1985); Alford, J. G. et al, Agents Action, 37, (1992); Stanley, P. L. et al, Skin Pharmacol, 4, 262-271 (1991)). The compounds were tested using the following procedure:
(§4) In groups of 6 female mice weighing 18-25 grams, ear skin inflammation was induced by multiple topical applications of TPA on alternate days during a 10 day period. The resulting inflammation was treated topically with compounds in acetone (20 μl/ear) twice daily on day 8, 9 and 10 and once on day 11. The increased ear thickness (ET, right ear thickness minus left ear thickness) was determined approximately 6 hours after the treatment, the mice were sacrificed and the myeloperoxidase (MPO)-activitywas determined in ear biopsies.

For a further data set, the system named is PMN-superoxide. The data set can be described thus: Inhibition of PMN (polymorphonuclear) superoxide secretion. Particulars: human PMN granulocytes, TNF-α primed, fMLP 10^-7 M; read-out: The median inhibition concentration (IC50, nM) of PMN-superoxide. It is filed as cell-based. As to the method: The compounds of the present invention also show similar activities in the ability to inhibit PMN (polymorphonuclear) superoxide secretion which is also indicative of potentially useful anti-inflammatory drugs. The compounds were tested using the following procedure:
Human polymorphonuclear (PMN) granulocytes were isolated from human blood by dextran sedimentation, Lymphoprep® fractionation and hypotonic lysis of contaminating erythrocytes.
Superoxide anion generation was measured as the superoxide dismutase inhibitable reduction of ferricytochrome C (Madhu, S. B. et al, Inflammation, 16, 241, (1992)).
The cells were suspended in Hanks' balanced salt solution, and incubated for 10 minutes at 37° C. with test compounds. The cells were primed by the addition of TNF-α (3 ng/ml final concentration) for 10 minutes, and then ferricytochrome C, (final concentration 750 μg/ml), bovine serum albumin (BSA, final concentration 1 mg/ml) and formyl-methionyl-leucyl-phenylalanine (fMLP, final concentration 10^-7 M) were added for 3 minutes.
The cells were chilled on ice, and were spun down. The optical densities in the cell-free supernatant was measured in a spectrophotometer.
The median inhibitory concentration (IC50) of the compounds was calculated.

Another data set relates to myeloperoxidase (MPO). Put plainly: TPA induced murine chronic skin inflammation model, myeloperoxidase (MPO) activity in ear biopsies. It counts as in vivo, mice. As to conditions: topical, twice daily on day 8, 9 and 10 and once on day 11. As to the method:
as §3, §4

Data set [2] in a line: Spleen and thymus weight in the TPA induced murine skin inflammation model. It counts as in vivo, mice. Particulars: 0.1 mg/ear, topical. The protocol:
as §3, §4

Molecules are shown by their SMILES.

On to `Nc1ccccc1Nc1ccc(C(=O)c2ccccc2)cc1` [Example 1, 4-(2-Aminophenylamino)benzophenone], for which the IC50 in the data set on IL-1β came out at 250 nM; in the data set on TNF-α it was 790 nM; in the data set on PMN-superoxide, 160 nM. The “% inhibition of ET” value in data set [1] (0.1 mg/ear) was determined as 50%. Also, the “% inhibition of MPO” value in the data set on myeloperoxidase (MPO) (0.1 mg/ear) was 65%.

As for `Nc1ccc(Nc2ccc(C(=O)c3ccccc3)cc2)cc1` [Example 2, 4-(4-Aminophenylamino)benzophenone], the “% inhibition of ET” value in data set [1] (0.1 mg/ear) turned out to be 40%. Moreover, the “% inhibition of MPO” value in the data set with myeloperoxidase (MPO) (0.1 mg/ear) came out at 76%.

In the case of `Nc1ccccc1Nc1ccc(C(=O)c2ccccc2Cl)cc1` [Example 13, 4-(2-Aminophenylamino)-2'-chlorobenzophenone], the IC50 with IL-1β came to 160 nM; with TNF-α it was 200 nM; in the data set with PMN-superoxide, 40 nM.

Consider `Cc1ccc(S(=O)(=O)Nc2ccccc2Nc2ccc(C(=O)c3ccccc3)cc2)cc1` [Example 27, N-(2-(4-Benzoylphenylamino)phenyl)-4-toluenesulfonamide], for which, in data set [1] (0.1 mg/ear), the “% inhibition of ET” value is 44%. Also, in the data set with myeloperoxidase (MPO) (0.1 mg/ear), the “% inhibition of MPO” value is 48%.

As to `CCOC(=O)Nc1ccccc1Nc1ccc(C(=O)c2ccccc2)cc1` [Example 32, Ethyl N-(2-(4-benzoylphenylamino)phenyl)carbamate], the values for the IC50 in the data set with IL-1β, with TNF-α and in the data set with PMN-superoxide were 100 nM, 130 nM and greater than 10000 nM, respectively.

Turning to `Cc1ccccc1C(=O)c1ccc(Nc2ccccc2N)cc1Cl` [Example 56, 4-(2-Aminophenylamino)-2-chloro-2'-methylbenzophenone], the IC50 was 13 nM with IL-1β, 7.1 nM in the data set with TNF-α and 5 nM in the data set with PMN-superoxide.

With `CCOC(=O)Nc1ccccc1Nc1ccc(C(=O)c2ccccc2C)c(Cl)c1` [Example 73, Ethyl N-(2-(4-(2-methylbenzoyl)-3-chlorophenylamino)phenyl)carbamate], the IC50 in the data set with IL-1β came to 32 nM; with TNF-α it was 5 nM; in the data set with PMN-superoxide, 5 nM.

Take `C[C@]12CCC(=O)C=C1CC[C@@H]1[C@@H]2[C@@H](O)C[C@@]2(C)[C@H]1CC[C@]2(O)C(=O)CO` [Hydrocortisone, reference compound]: the “Reduction of spleen and thymus weight” value in data set [2] was “Reduction of spleen and thymus weight”. In addition, the “% inhibition of ET” value in data set [1] (0.03 mg/ear) is 36%; in data set [1] (0.1 mg/ear), 58%. The figures for the “% inhibition of MPO” value in the data set on myeloperoxidase (MPO) (0.03 mg/ear) and with myeloperoxidase (MPO) (0.1 mg/ear) were 51% and 69%, respectively.

The record behind these values is patent publication US6313174A, “Aminobenzophenones as inhibitors of interleukin and TNF” (Leo Pharmaceutical Products Ltd.A/S/ (L.o slashed.vens …, priority 1997, dated 2001).
